Experimental data published in patent US20230301993A1, “Low-Dose Ophthalmic Compositions and Methods” (priority 2020, published 2023).
“Also recorded” adds a separate entry of the source.

Tests used:
rabbit eye model [1] = assay: Pupillometry: effect of single topical ocular administration on pupillary diameter (miotic effect) in rabbit eye model; assay type: in vivo, Dutch Belted Rabbits
Procedure: The following examples were performed to determine which active pharmaceutical agent (API), alone or in combination, could effect upon topical administration an approximate 1-2 mm decrease in pupillary diameter with a desirable (e.g., about 4 h) duration of action. Unless stated otherwise, a rabbit animal model was used for the studies. Phentolamine was used as a positive control (comparator API) and caused an approximately 1 mm decrease in the pupil at 0.5% and 1% with a duration of more than 6 hours.
Study design: 3 Dutch Belted Rabbits (pigmented breed)/group received a single ocular administration of test articles (one drop per eye) at 3 concentrations (tested one week apart). After a 2-week rest period, combinations were tested. Ocular irritation was assessed using a modified Draize test. Intraocular pressure (IOP) was measured at baseline, 1 h, 4 h, 6 h and 24 hours. Pupillary Diameter was measured at baseline, 15 min, 1 h, 4 h and 6 h after dosing. Due to the variation in pupillary diameter and IOP between rabbits and between eyes within rabbits, the data for pupillary diameter and IOP were normalized and presented with error bars (SD). A change of 15% to 20% approximates a pupillary diameter change of 1 mm. […]

rabbit eye model [2] = assay: Effect of benzalkonium chloride on the miotic effect of carbachol; assay type: in vivo
Source text: In still further experiments, the inventors investigated the effect of benzalkonium chloride on the miotic effect of carbachol. To that end, different concentrations of BAC were employed between 0.005% and 0.02% at carbachol concentrations between 0.025% and 0.075%, and the results are shown in FIGS. 6A-6C. […] As BAK is believed to increase permeability of the respective agents across the corneal tissue, addition of BAK at concentrations up to 0.05% may advantageously increase miotic effect at otherwise identical drug concentration. Thus, BAK may enhance the miotic action of brimonidine, rivastigmine, galantamine, and carbachol, which may in turn allow for reduced drug concentrations and/or increased miotic effect without unduly extending the duration of the miotic effect.

Brc1c(N=C2NCCN2)ccc2nccnc12.O=C(O)C(O)C(O)C(=O)O [Brimonidine, 5-Bromo-6-(2-imidazolidinylideneamino) quinoxaline L-tartrate]
miotic effect on pupillary diameter (rabbit eye model [1]; at doses tested, rabbit): little to no effect | miotic effect on pupillary diameter (rabbit eye model [1]; doses at or below 0.1%, rabbit (FIG. 2), L-tartrate): some miotic effect; also recorded: moderate effect | miotic effect on pupillary diameter (rabbit eye model [1]; higher doses tested, at or above 0.2%, rabbit (FIG. 2)): little to no effect

Br.COc1ccc2c3c1O[C@H]1C[C@@H](O)C=C[C@@]31CCN(C)C2 [Galantamine, galantamine]
decrease in pupil (rabbit eye model [1]; concentration of about 2%, alone, rabbit): 1-2 mm | duration of reduction in pupillary diameter (lasted at least) (rabbit eye model [1]; high dose (2%), rabbit (FIG. 4A)): at least 1 h

Cc1ccc(N(CC2=NCCN2)c2cccc(O)c2)cc1 [Phentolamine]
duration of reduction in pupillary diameter (rabbit eye model [1]; all doses, topical, rabbit (FIG. 1)): at least 6 h | decrease in the pupil (rabbit eye model [1]; at 0.5% and 1%, topical, one drop per eye, rabbit): approximately 1 mm

CCN(C)C(=O)Oc1cccc(C(C)N(C)C)c1 (stereo not drawn) [Rivastigmine, N-ethyl-3-[1-dimethylamino)ethyl]-N-methylphenyl carbamate]
decrease in pupil (rabbit eye model [1]; concentration of about 1%, alone, rabbit): 1 mm | miotic effect on pupillary diameter (comparison in words) (rabbit eye model [1]; concentration of about 1%, alone, rabbit (FIG. 3A)): substantially similar to phentolamine

C[N+](C)(C)CCOC(N)=O [carbachol]
duration of action (miotic effect) (rabbit eye model [1]; carbachol, even at lowest dose (about 0.075%), rabbit): 2 to 4 h | miotic effect (potency in words) (rabbit eye model [1]; even at the lowest dose / low concentration of about 0.075%, rabbit (FIG. 5)): very potent

N-Alkyl-N-benzyl-N,N-dimethyl-ammonium chloride [BAC]
effect of BAC on miotic effect of carbachol (rabbit eye model [2]; BAC 0.005%, at 1 hr, higher carbachol concentration (FIG. 6A)): some effect | effect of BAC on miotic effect of carbachol (rabbit eye model [2]; BAC 0.005%, carbachol 0.025%-0.075% (FIG. 6A)): minimal effect | effect of BAC on miotic effect of carbachol (rabbit eye model [2]; BAC 0.01%, carbachol 0.025%-0.075% (FIG. 6B)): somewhat more pronounced | effect of BAC on miotic effect of carbachol (rabbit eye model [2]; BAC at least 0.02%, carbachol 0.025%-0.075% (FIG. 6C)): significant
